From patent US12545708B2, “Peptide for treatment of corona virus infection disease COVID-19 and use thereof” (DAEGU GYEONGBUK INSTITUTE OF SCIENCE AND TECHNOLOGY, priority 2020, dated 2026)

Experiments:
RBD = RBD (Severe acute respiratory syndrome coronavirus 2, UniProt P0DTC2); experiment: biochemical; format: binding, SARS-CoV2

Question: How did the “change in cell viability” value (HEK293T cell line) turn out when `CC[C@H](C)[C@H](NC(=O)[C@H](CC(N)=O)NC(=O)[C@@H](NC(=O)[C@H](CC(N)=O)NC(=O)[C@H](Cc1ccc(O)cc1)NC(=O)[C@@H](NC(=O)[C@H](CC(N)=O)NC(=O)[C@H](CC(=O)O)NC(=O)[C@H](C)NC(=O)[C@H](CC(C)C)NC(=O)[C@H](CCC(N)=O)NC(=O)[C@H](CO)NC(=O)[C@H](CCCCN)NC(=O)[C@@H](N)CCSC)C(C)C)[C@@H](C)O)C(=O)N[C@H](C(=O)N[C@@H](CCCCN)C(=O)N[C@@H](CCC(=O)O)C(=O)N[C@@H](CC(N)=O)C(=O)N[C@H](C(=O)N[C@@H](CCC(N)=O)C(=O)N[C@@H](CC(N)=O)C(=O)N[C@@H](CCSC)C(=O)N[C@@H](CC(N)=O)C(=O)N[C@@H](CCC(=O)O)C(=O)N[C@@H](CCC(=O)O)C(=O)N[C@@H](CCC(N)=O)C(=O)N[C@@H](C)C(=O)N[C@@H](CCCCN)C(=O)N[C@H](C(=O)N[C@@H](Cc1ccccc1)C(=O)N[C@@H](CC(C)C)C(=O)N[C@@H](CC(=O)O)C(=O)N[C@@H](CCCCN)C(=O)N[C@@H](Cc1ccccc1)C(=O)N[C@@H](CC(N)=O)C(=O)N[C@@H](Cc1c[nH]cn1)C(=O)N[C@@H](CCC(=O)O)C(=O)N[C@@H](C)C(=O)N[C@@H](CCC(=O)O)C(=O)N[C@@H](CC(=O)O)C(=O)N[C@@H](CC(C)C)C(=O)N[C@@H](Cc1ccccc1)C(=O)N[C@@H](Cc1ccc(O)cc1)C(=O)N[C@@H](CCC(N)=O)C(=O)N[C@@H](CO)C(=O)N[C@@H](CO)C(=O)NCC(=O)N[C@@H](CC(C)C)C(=O)NCC(=O)N[C@@H](CCCCN)C(=O)NCC(=O)N[C@@H](CC(=O)O)C(=O)N[C@@H](Cc1ccccc1)C(=O)N[C@@H](CCCNC(=N)N)C(=O)O)[C@@H](C)O)C(C)C)[C@@H](C)O` [PEP9] was run?
Answer: no significant change

Question: What about the “change in cell viability” value (HepG2 cell line) of the same compound?
Answer: no significant change

Question: And the Kd (RBD)?
Answer: 34.5 nM

Question: And the “change in cell viability” value (HMC-3 cell line)?
Answer: no significant change

Question: And the “decrease in the cell viability” value (HMC-3 cell line)?
Answer: about 10%

Question: And the “change in cell viability” value (MRC-5 cell line)?
Answer: no significant change
